This is an account of results in patent publication US20250195474A1, “Piezo Inhibition for Wound Healing” (priority 2022, published 2025).

No end group written: not given here.

For one data set, the system named is mouse adipocytes. Briefly: Proliferation and apoptosis assays for treatment toxicity. In kind it is cell-based. As to conditions: 0.5x, 1x, 2x standard concentration [500 nm], 7 days. As to the method: P1i and P2i treated adipocytes (and fibroblast controls) were examined for treatment toxicity using proliferation and apoptosis assays. […] Then, cells were treated with either 0.5×, 1×, or 2× the standard concentration of Piezo1 or Piezo2 inhibitors [500 nm]. After 7 days of treatment, cells were fixed or harvested for analysis of potential toxicity. For proliferation, EdU (5-ethynyl-2′-deoxyuridine) incorporation in vitro was investigated on differentiated adipocytes and undifferentiated fibroblasts using the Click-iT™ EdU Cell Proliferation Kit for Imaging, Alexa Fluor™ 488 dye (ThermoFisher, Cat: C10337). Proliferation was detected according to the manufacturer's guidelines. To evaluate apoptosis, the Annexin V Apoptosis Detection Kit-AF647 (Abcam, Cat: 219919) was used according to the manufacturer's guidelines.

Data set [1] concerns human foreskin xenograft wounds. Briefly: CODEX analysis of human xenograft wounds at POD 14. In kind it is in vivo. From the text: To spatially phenotype the pig specimens, we used Co-Detection by Indexing (CODEX), a novel assay in which markers are labeled with oligonucleotide-conjugated antibodies and iteratively imaged between cyclic additions and washouts of dye-labeled oligonucleotides. A custom CODEX panel was designed to assess wound cells within the tissue see Table 1). In brief, primary antibodies were individually barcoded and validated using the commercial supplier's protocols. OCT for mouse or paraffin blocks for human xenograft (n=3 per group) were sectioned at 8 μm thickness onto coverslips for CODEX antibody staining. Antigens were retrieved by standard citrate-EDTA processing prior to addition of CODEX antibodies. Using a CODEX-integrated Keyence BZ-X instrument (Akoya Biosciences) image acquisition was then performed. Using software from Akoya Biosciences the raw images were process, with cell segmentation, and rendering.
The CODEX was visualized using Akoya Biosciences Multiplex Analysis Viewer (MAV) in ImageJ. The resulting .fcs files were then concatenated in FlowJo and imported into the Monocle3 and STvEA R packages for further analysis. After debris removal, the processed UMAP manifold was analyzed through Monocle3 with a post-manifold threshold of >10,000 cells per cluster. Analysis of the protein staining patterns was then used to assign cell types. The cell interactions were then inferred using STvEA for cell types at >2.5% of total abundance at k=20 nearest neighbors to quantify cell spatial interactions, and differential interaction maps were generated using graph scores.
While scRNA-seq of human xenografts investigates human fibroblast subpopulations at a transcriptomic level, we further utilized CODEX to analyze spatially defined protein expression and cellular organization (FIG. 13A; markers shown in Table 1 right column). Specifically, we compared the spatial microenvironment of PBS, P1i, and unwounded skin at POD 14. […]

The target in a further data set is T1, TRPC6 (Homo sapiens, UniProt Q9Y210).
T1 sequence (Q9Y210 1-931): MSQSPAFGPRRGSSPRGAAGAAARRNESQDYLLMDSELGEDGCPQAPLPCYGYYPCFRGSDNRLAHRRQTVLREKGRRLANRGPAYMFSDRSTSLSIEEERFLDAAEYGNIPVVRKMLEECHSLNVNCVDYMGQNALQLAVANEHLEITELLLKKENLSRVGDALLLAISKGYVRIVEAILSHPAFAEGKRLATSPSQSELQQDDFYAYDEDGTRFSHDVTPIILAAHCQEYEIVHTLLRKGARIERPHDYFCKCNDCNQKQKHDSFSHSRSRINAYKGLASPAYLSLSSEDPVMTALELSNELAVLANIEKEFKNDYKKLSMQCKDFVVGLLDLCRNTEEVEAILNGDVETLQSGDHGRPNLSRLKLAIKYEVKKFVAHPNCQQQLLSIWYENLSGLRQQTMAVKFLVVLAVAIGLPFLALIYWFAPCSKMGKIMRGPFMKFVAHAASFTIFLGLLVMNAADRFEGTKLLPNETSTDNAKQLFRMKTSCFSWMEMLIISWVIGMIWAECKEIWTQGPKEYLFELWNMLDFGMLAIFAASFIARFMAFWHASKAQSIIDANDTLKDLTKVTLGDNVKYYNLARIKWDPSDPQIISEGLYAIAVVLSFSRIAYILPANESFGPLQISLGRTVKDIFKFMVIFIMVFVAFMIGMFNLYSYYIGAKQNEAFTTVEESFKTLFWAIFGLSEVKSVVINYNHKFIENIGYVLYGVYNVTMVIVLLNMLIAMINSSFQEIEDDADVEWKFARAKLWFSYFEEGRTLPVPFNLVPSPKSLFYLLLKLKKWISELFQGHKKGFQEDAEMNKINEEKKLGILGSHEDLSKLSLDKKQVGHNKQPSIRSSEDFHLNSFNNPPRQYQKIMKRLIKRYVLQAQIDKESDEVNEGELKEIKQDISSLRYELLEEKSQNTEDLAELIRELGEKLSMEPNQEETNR
Conditions: cited from earlier work.

With “GsMTx4 (GCLEFWWKCNPNDDKCCRPKLKCSKLFKLCNFSF; ends and bridges not checked; cysteine pairing not given here; UniProt Q7YT39 47-80, looked up) [P1i]”, the “percentage of cells positive for EdU, annexin V or DAPI by FACS” value with mouse adipocytes is reported as “None of the markers' expression was significantly different”. In data set [1] (POD 14), the “interactions between fibroblasts and adipocytes” value is “PBS-treated wounds showed broadly enriched interactions between fibroblasts and adipocytes compared to P1i-treated wounds”; the “interactions of adipocytes 4” value was “strong crosstalk between adipocytes 4 and epithelial cells”. In addition, the “relative proportions of CODEX defined adipocyte clusters” value in data set [1] (POD 14, vs PBS, p<0.05) was “fewer of the adipocyte 1 subtype and more of the adipocyte 4 subtype”. The “block of TRPC6” value in the data set with TRPC6 is “blocks”.
